# Patent US7786077B2, “Insulins combinations” (priority 2005, dated 2010)
# Test system: Streptozotocin-injected male Wistar rats
# Assay: Glycemia over 24 days in streptozotocin (60 mg/kg) rats given betaine in drinking water (Example 4)
# Assay type: in vivo, rat
# Details: 200 mg/kg/day in drinking water, STZ 60 mg/kg rats, FIG. 4
# Experimental: Male Wistar rats (+250 g) after 1 week stabulation are injected Streptozotocin 60 mg/kg intraperitoneally. Animals (n=8/group) were fed with normal chow and water ad libitum during 5 days, then at day 1 (T0) Betaine (200 mg/kg/day) or placebo were dissolved and administrated daily in drinking water during 24 days; full access to normal chow was maintained during the whole experiments. Glycemia was measured morning at days of experiments, in non-fastened rats (as in previous exp.). At T0+7 days the treatments were inverted between the 2 groups.
smiles,measurement,value
C[N+](C)(C)CC(=O)O [glycine betaine],effect on the regulation of blood glucose,per se possesses an effect on the regulation of blood glucose
